Measured values as given in patent publication US6472395B1, “Agent for use in transplantation” (Leif J. I. Lundblad, priority 1999, dated 2002).
Entries after “also recorded” stand apart in the source; their conditions may differ. One block for each compound: values may come before it.

Tests used:
rat livers [1] = assay: Ischemia/reperfusion in rat liver perfusion system, removal of lactate, comparison with known protective compounds; conditions: 5 mg added to the perfusate before ischemia; FIG. 3
Protocol: A third experiment was carried out, wherein rat livers were taken out and were subjected to perfusion in a heart/lung machine. The perfusion solution is blood with an implanted liver. When the system has reached equilibrium the perfusion flow is shut off and 10 to 20 minutes later the perfusion flow is turned on again, which is called reperfusion (ischemia). A known toxic effect of reperfusion (ischemia/infarction)(tissue damage due to oxidative stress) is the reduced capacity to remove lactate from the perfusate.

rat livers [2] = assay: TPA toxicity in rat liver perfusion, lactate and bile flow
Protocol: (§1) A series of experiments were carried out with rat livers in a heart/lung machine (FIGS. 4 and 5).
(§2) Lactate was added to a control liver perfusion and the bile flow and the lactate level were measured as a function of time. Bile flow is the clinical parameter for liver function, the higher bile flow the better liver function. The results from controls are shown in the upper diagrams of FIGS. 4 and 5. A normal liver down-regulates the lactate very rapidly to in vivo levels (3-5 mM). The normal bile flow in controls is represented by the dotted line.
In the next experiment (FIG. 5) a very toxic compound, triphorbolester (TPA) was added to the perfusion fluid. TPA is an inducer of inflammation and a very potent tumour promoter.
Then the same experiment was repeated under the same conditions except that 2 mg B220 also was added to the perfusion. From said results it can be seen that when B220 is present in the system the toxic effects of TPA were prevented and the values of lactate and bile flow were restored (and even better as compared to the controls in FIG. 5, upper diagram). […] The mode of action resides in a blocking of hyperplasia/inflammation.

rat liver [3] = assay: Donor pretreatment, liver stored 24 h at +4° C. then isolated perfusion, bile flow and lactate; format: in vivo; conditions: pretreatment of B220 to the donor
Protocol: The same experiment was repeated but instead the temperature applied during transport of human livers(+4° C.) was used. The livers were stored for 24 h before installation in the perfusion system. This should be compared to 12 h which is the maximum for human liver transplantation. […] The experiment was identical to what is shown in FIG. 6 except for time and temperature used.

[4] = Toxicity in vivo (general statement)
[5] = Long time in vivo experiments on tumour promoter effect of TPA
rat liver [6] = assay: Donor pretreatment, liver stored 2 h at +30° C. then isolated perfusion, total bile flow; format: in vivo; conditions: single dose B220 i.p. to donor 24 h prior to surgery; liver 2 h at +30° C.; FIG. 6
Protocol: In a further experiment rat liver was tested in isolated perfusion where B220 was administered to the donor. The donors were administered a single dose of B220 24 h before the livers were surgically removed and kept at +30° C. for 2 h before set into perfusion (group 3). (There was a “short” storage (2 h) of rat liver at a high temperature (+30° C.) in order to simulate transplantation). The second group was not administered B220 and the first group was controls directly set into perfusion. […] “Transport” and reperfusion gives a massive oxidative stress which leads to tissue damage.
In FIG. 6 the total bile flow was an indicator of tissue damage induced by transplantation. The controls were directly “transplanted” to the perfusion system while the second group of livers was kept for 2 h at 30° C. before “transplantation”. The third group represents the 2 h at 30° C. treatment but with addition of B220 to the donors.

rats = assay: In vivo test of rats with 2,7-dNF, livers analysed for 8-OH-dG; design: species or system rat; conditions: oral in corn oil, B220 at −48 h, −24 h and +6 h relative to 2,7-dNF dose; FIG. 2
Protocol: In another experiment rats were tested in vivo and the livers analyzed for 8-OH-dG. In this experiment there were three test groups. One control group, one group to which 2,7-dinitrofluorene (2,7-dNF), which is a well-known carcinogen found in diesel exhaust and inducer of 8-OH-dG, was orally administered and one group to which both 2,7-dNF and a compound to be used as an agent according to the present invention (B220) were administered. B220 was administered at three time points in relation to the 2,7-dNF dose, viz. −48 h, −24 h and +6 h. All doses were administered orally with the substance in corn oil. Control only received carrier. Oxidation of DNA (oxidation of guanine, 8-OH-dG) was measured in the liver. 8-OH-dG is a promutagenic event correlated to several different types of diseases, for instance cancer, diabetes and infectious diseases.
The results of the experiment can be seen from the enclosed FIG. 2.

rat livers [7] = assay: Reperfusion (10 min shut-off) of rat liver in heart/lung machine, lactate and bile flow over time; conditions: 2 mg B220 in the system, FIG. 4 lower diagram
Protocol: as §1, §2
In the next experiment a heart/lung machine was shut off for 10 minutes and then it was started again to induce oxidative stress (reperfusion). The amount of lactate, which is a measurement of tissue damage, was determined as a function of time and the bile flow as a function of time was also determined as an indicator of toxic effect. The results are shown in FIG. 4, middle diagram, indicating a high level of lactate (solid curve) and a reduced bile flow (dotted curve) after reperfusion. Both these effects are markers for tissue damage.
In the next experiment the same reperfusion experiment was carried out with B220 present in the system in an amount of 2 mg.

[8] = 2 mg B220 added together with TPA, FIG. 5 lower diagram
[9] = TPA alone added to the perfusion fluid, FIG. 5 middle diagram

Protocol for liver from rat: In order to investigate the agents to be used in transplantation according to the present invention a liver from rat was tested in a perfusion solution in a heart/lung machine. In order to measure organ damage the amount of 8-OH-dG in the liver was analysed. As an inducer of 8-OH-dG dimethylsulphoxide (DMSO) was added to a perfusion solution.

SMILES: CC(=O)Oc1ccccc1C(=O)O [ASA, acetyl salicylic acid]
reduction of lactate in perfusate after ischemia (protection) (rat livers [1]): did not give any protective effects

SMILES: Cc1cc2nc3c4ccccc4n(CCN(C)C)c3nc2cc1C [B220]
bile flow with TPA in perfusion (rat livers [2]; [8]): restored | lactate with TPA in perfusion (rat livers [2]; [8]): restored | bile flow (rat liver [3]; FIG. 7): the bile flow was restored | lactate levels (rat liver [3]; FIG. 8): same protective effect on lactate levels | toxicity [4]: practically non-toxic | tumour promoter effect of TPA [5]: can stop the very potent tumour promoter effect of TPA | total bile flow during the perfusion (rat liver [6]): the toxic effects are eliminated; also recorded: completely restored the bile flow value to that of the control samples | 8-OH-dG in the liver (oxidation of DNA) (rats): protects against 2,7-dNF-induced formation of 8-OH-dG; also recorded: reduces 8-OH-dG to below the control values | bile flow as a function of time after reperfusion (rat livers [7]): rapidly accommodate to normal values; also recorded: better than in the controls | lactate amount as a function of time after reperfusion (rat livers [7]): rapidly accommodate to normal values; also recorded: better than in the controls | reduction of lactate in perfusate after ischemia (protection) (rat livers [1]): significant reduction of lactate; also recorded: statistically significant protection

8-OH-dG in the liver (liver from rat): significant increase of 8-OH-dG
SMILES: C[S+](C)[O-] [DMSO, dimethylsulphoxide, reference compound]

SMILES: CCCCCCCCCCCCCC(=O)O[C@@H]1[C@@H](C)[C@@]2(O)[C@@H](C=C(CO)C[C@]3(O)C(=O)C(C)=C[C@@H]23)[C@@H]2C(C)(C)[C@]12OC(C)=O [TPA, triphorbolester, reference compound]
capacity to produce bile (rat livers [2]; [9]): very restricted capacity to produce bile | capacity to reduce lactate (rat livers [2]; [9]): very limited capacity to reduce lactate
